Measured values: the NIST ThermoML archive (doi:10.1021/acs.jced.9b00704)
Numbers after ± are expanded uncertainties.

Conditions: Liquid, Light diffraction method

CCCCCC(=O)OC [methyl hexanoate]
Conditions | speed of sound [m/s]
297.83 K, 110 kPa | 1225.1 ± 20
298.17 K, 10000 kPa | 1274.4 ± 20
298.35 K, 7010 kPa | 1261.9 ± 20
298.56 K, 5000 kPa | 1252.4 ± 20
298.76 K, 1010 kPa | 1231.7 ± 20
298.85 K, 3000 kPa | 1240.3 ± 20
306.48 K, 110 kPa | 1182.9 ± 19
308.58 K, 10010 kPa | 1227.8 ± 20
308.59 K, 1010 kPa | 1186.9 ± 19
308.9 K, 7000 kPa | 1221.1 ± 20
309.13 K, 5010 kPa | 1210.5 ± 19
309.19 K, 3010 kPa | 1197.6 ± 19
317.52 K, 10010 kPa | 1181 ± 19
317.6 K, 7010 kPa | 1175.8 ± 19
317.92 K, 100 kPa | 1137 ± 18
318.3 K, 1000 kPa | 1142.6 ± 18
318.41 K, 5010 kPa | 1160.9 ± 19
319.17 K, 3010 kPa | 1152.2 ± 18
327.21 K, 110 kPa | 1090.2 ± 18
327.38 K, 7010 kPa | 1130.2 ± 18
327.4 K, 10010 kPa | 1143.2 ± 18
327.58 K, 1010 kPa | 1097.9 ± 18
327.64 K, 5010 kPa | 1120.6 ± 18
327.9 K, 3000 kPa | 1107.9 ± 18
336.91 K, 100 kPa | 1055.2 ± 17
337.21 K, 5000 kPa | 1091.3 ± 18
337.21 K, 7010 kPa | 1102.7 ± 18
337.71 K, 10010 kPa | 1111.9 ± 18
337.95 K, 1000 kPa | 1065.3 ± 17
337.97 K, 3000 kPa | 1078 ± 17
346.56 K, 1010 kPa | 1029.7 ± 16
346.9 K, 100 kPa | 1021.1 ± 16
346.92 K, 10020 kPa | 1081.3 ± 17
347.43 K, 7000 kPa | 1067.3 ± 17
347.71 K, 3010 kPa | 1040.3 ± 17
347.75 K, 5010 kPa | 1054.8 ± 17
356.24 K, 3010 kPa | 1011.9 ± 16
356.68 K, 10010 kPa | 1048.7 ± 17
357.28 K, 100 kPa | 970.4 ± 16
357.33 K, 7010 kPa | 1033.1 ± 17
357.35 K, 5000 kPa | 1022.1 ± 16
357.85 K, 1010 kPa | 989.8 ± 16
366.38 K, 3010 kPa | 970.6 ± 16
366.68 K, 5000 kPa | 980.4 ± 16
366.89 K, 10000 kPa | 1005.5 ± 16
367.18 K, 7000 kPa | 989.6 ± 16
367.24 K, 1010 kPa | 947.2 ± 15
367.48 K, 100 kPa | 938.2 ± 15
377.25 K, 3000 kPa | 927.9 ± 15
377.7 K, 10000 kPa | 974.3 ± 16
377.72 K, 5000 kPa | 939.5 ± 15
377.88 K, 110 kPa | 903.5 ± 14
377.91 K, 1010 kPa | 910.8 ± 15
377.97 K, 7000 kPa | 961 ± 15
386.63 K, 3000 kPa | 894.6 ± 14
386.85 K, 10000 kPa | 945.8 ± 15
387.01 K, 1010 kPa | 874.2 ± 14
387.07 K, 7000 kPa | 922 ± 15
387.29 K, 5000 kPa | 908.4 ± 15
387.73 K, 100 kPa | 866.5 ± 14
396.7 K, 3000 kPa | 862 ± 14
397.25 K, 10010 kPa | 909.9 ± 15
397.54 K, 7020 kPa | 891.4 ± 14
397.64 K, 1010 kPa | 842.1 ± 14
397.83 K, 5000 kPa | 875.5 ± 14
398.6 K, 90 kPa | 827.8 ± 13
406.65 K, 1010 kPa | 810.8 ± 13
406.78 K, 3010 kPa | 828.8 ± 13
406.79 K, 7020 kPa | 857.7 ± 14
406.89 K, 10000 kPa | 885.7 ± 14
406.99 K, 5010 kPa | 841.7 ± 14
407.93 K, 100 kPa | 799 ± 13
416.99 K, 7010 kPa | 835.1 ± 13
417.08 K, 1010 kPa | 775.9 ± 12
417.12 K, 3000 kPa | 796.9 ± 13
417.21 K, 5010 kPa | 808.2 ± 13
417.21 K, 10020 kPa | 864.4 ± 14
417.52 K, 110 kPa | 764.3 ± 12
427.06 K, 1000 kPa | 746 ± 12
427.25 K, 3000 kPa | 770.6 ± 12
427.25 K, 5000 kPa | 786.5 ± 13
427.33 K, 7000 kPa | 805.5 ± 13
427.38 K, 10010 kPa | 833.5 ± 13
436.99 K, 1010 kPa | 714.9 ± 13
437.07 K, 5000 kPa | 751.6 ± 12
437.97 K, 6990 kPa | 771.5 ± 12
438.1 K, 9980 kPa | 802.1 ± 13
439.3 K, 3000 kPa | 727.5 ± 13
446.68 K, 3010 kPa | 706.2 ± 13
447 K, 4990 kPa | 723 ± 13
447.21 K, 10010 kPa | 776 ± 12
447.38 K, 7000 kPa | 744.5 ± 12
447.88 K, 1000 kPa | 672.6 ± 12
456.61 K, 3000 kPa | 673.8 ± 12
456.81 K, 9990 kPa | 747 ± 12
456.84 K, 5000 kPa | 695.3 ± 13
457.1 K, 7010 kPa | 715.1 ± 13
457.84 K, 990 kPa | 642.8 ± 12
466.22 K, 3010 kPa | 642.9 ± 12
466.28 K, 5000 kPa | 663.1 ± 12
466.3 K, 7000 kPa | 689.7 ± 12
466.3 K, 10010 kPa | 720.4 ± 13
466.46 K, 1010 kPa | 613.5 ± 11
478.01 K, 1010 kPa | 570.1 ± 10
478.28 K, 7000 kPa | 646.3 ± 12
478.28 K, 10000 kPa | 677.8 ± 12
478.34 K, 5010 kPa | 623.4 ± 11
478.43 K, 3010 kPa | 596.3 ± 11
487.58 K, 1000 kPa | 535.4 ± 11
487.67 K, 3010 kPa | 565.4 ± 10
487.67 K, 5000 kPa | 595 ± 11
487.69 K, 7000 kPa | 617 ± 11
487.71 K, 10000 kPa | 653.5 ± 12
497.17 K, 1010 kPa | 499.6 ± 10
497.36 K, 5000 kPa | 568.5 ± 10
497.38 K, 7000 kPa | 591.6 ± 11
497.43 K, 3010 kPa | 534.1 ± 11
497.44 K, 10000 kPa | 629.4 ± 11
506.49 K, 3000 kPa | 503.9 ± 10
506.88 K, 1000 kPa | 464.6 ± 9.3
506.97 K, 7010 kPa | 563.3 ± 10
507.02 K, 10020 kPa | 599.2 ± 11
507.11 K, 5010 kPa | 535.1 ± 11
516.99 K, 1010 kPa | 426.2 ± 9.4
517.52 K, 7010 kPa | 531.6 ± 11
517.56 K, 3000 kPa | 468.7 ± 9.4
517.6 K, 5010 kPa | 504.9 ± 10
517.63 K, 10010 kPa | 571 ± 10
528.29 K, 5000 kPa | 472.6 ± 9.5
528.46 K, 7000 kPa | 504 ± 10
528.65 K, 10010 kPa | 547.3 ± 9.9
529.52 K, 3000 kPa | 426 ± 9.4
538.04 K, 3000 kPa | 396.8 ± 8.8
538.26 K, 5010 kPa | 439.9 ± 8.9
538.26 K, 7000 kPa | 472.1 ± 9.5
538.35 K, 10000 kPa | 516.1 ± 10
547.56 K, 3000 kPa | 362.7 ± 8.8
547.96 K, 5000 kPa | 406.1 ± 9
548.18 K, 9980 kPa | 498.8 ± 10
548.26 K, 7000 kPa | 446 ± 9
557.68 K, 3000 kPa | 321.9 ± 7.8
557.89 K, 7010 kPa | 423 ± 9.4
558.07 K, 10000 kPa | 472.6 ± 9.5
558.34 K, 5000 kPa | 378.3 ± 8.4
565.69 K, 10010 kPa | 446.4 ± 9
566.56 K, 3010 kPa | 285.3 ± 7.5
567.58 K, 5000 kPa | 346.5 ± 8.4
567.72 K, 7010 kPa | 390.1 ± 8.6
575.39 K, 5000 kPa | 317.9 ± 8.4
576.35 K, 7000 kPa | 365.2 ± 8.8
576.45 K, 3010 kPa | 241 ± 6.4
577.04 K, 10010 kPa | 420.8 ± 9.3
586.48 K, 3000 kPa | 197.5 ± 5.8
586.99 K, 5010 kPa | 275 ± 7.8
587.76 K, 7000 kPa | 334.6 ± 8.1
588.07 K, 10030 kPa | 393.2 ± 8.7
